From patent publication US5798447A, “Antibodies specific for D-myo-inositol 1, 4, 5-trisphosphate and the enzyme-linked immunosorbent assay of D-myo-inositol 1, 4, 5-trisphosphate” (The Board of Governors for Higher Education State of Rhode …, priority 1996, dated 1998)
pIC50: −log10 of the molar value. Entries after “also recorded” stand apart in the source; their conditions may differ.

Key:
[1] = system: IP3 -C5 -BSA induced antibodies (anti-Ins(1,4,5)P3 antiserum); assay: Competitive ELISA: immobilized Ins(1,4,5)P3 vs competitor, IP3-C5-BSA induced antiserum; assay type: binding, New Zealand White rabbit; settings: IP3-C5-BSA induced antibodies; for IC50: competitive ELISA, read-out: [Competitor] (M) at half maximal absorbance (B/Bo = 0.5) or IC50
Procedure: (§1) New Zealand White female rabbits were immunized with 1 mg of the IP3 -BSA conjugate in 0.5 ml of saline emulsified with an equal volume of Freund's complete adjuvant by five to six subcutaneous injections at the back and both flanks. Booster injections were given with the same amounts of the IP3 -BSA prepared with incomplete Freund's adjuvant at monthly intervals. After the second boost, the animals were bled from the ear vein 2 weeks after each booster injection. The antisera thus prepared were stored at -20° C. until used.
(§2) The presence of anti-Ins(1,4,5)P3 antibodies in rabbit serum was detected by an ELISA. Ins(1,4,5)P3 (hapten) was covalently attached to microtiter plates through a C-6 linker by adding 6-O-(ω-Aminohexyl)-D-myo-inositol 1,4,5-triphosphate (1) (1.25 μg in 0.1 ml of phosphate buffered saline (PBS) per well) to maleic anhydride-activated polystyrene plates (Pierce). This anhydride-activated plate allows direct coupling of amine-bearing molecules to the well surface, (Pierce Chemical Co. Instruction 15110X (1992) REACTI-BIND™ Maleic Anhydride Activated Polystyrene Plates), and obviates the need for a carrier protein to immobilize haptens. The plate was incubated at room temperature overnight, and each well was blocked by adding 0.12 ml of SUPERBLOCK ™ blocking solution in PBS (Pierce). After 10 minutes at room temperature, the plate was washed twice with 0.05% Tween-20 in 10 mM Tris/HCl containing 0.85% NaCl, pH 7.2 (TBS), followed by TBS buffer twice. Rabbit antiserum (antibodies) diluted in TBS buffer containing 0.1% gelatin was added (95 μl per well). The plate was incubated at 37° C. for 2 hours, and washed as stated above. Specific antibody binding was assessed by adding goat anti-rabbit IgG-HRP conjugate (1/200 dilution in TBS containing 0.1% gelatin; 90 μl per well), and the plate was incubated for another 2 hours at 37° C. After the plate was washed again, the peroxidase substrate solution (90 μl per well) containing 2 mM 2,2'-azinobis(3-ethyl-benzthiazoline-6-sulfonic acid), 2.5 mM hydrogen peroxide, and 50 mM citrate buffer, with a final pH of 5.0, was added. The reaction was incubated at room temperature for 15-20 minutes, and terminated by adding 20 μl of 5% SDS to each well. The absorbance at 415 nm was measured by a microtiter plate reader. Rabbit serum taken before immunization was used as a control in all the assays, from which the absorbance values obtained served as a blank for the correction of experimental data.
(§3) The avidity and specificity of these antisera were examined by competitive ELISA experiments between immobilized Ins(1,4,5)P3 and various inositol phosphates.
(§4) Table 1 Avidity of antisera toward various inositol phosphates and
(§5) PIP2. The avidity is expressed as the concentrations at halfmaximal
(§6) absorbance (B/Bo = 0.5) in the competitive ELISA experiments.

[2] = system: IP3 -C6 -NC5 -BSA induced antibodies (anti-Ins(1,4,5)P3 antiserum); assay: Competitive ELISA: immobilized Ins(1,4,5)P3 vs competitor, IP3-C6NC5-BSA induced antiserum; assay type: binding, New Zealand White rabbit; settings: for IC50: IP3-C6-NC5-BSA induced antibodies, competitive ELISA, read-out: [Competitor] (M) at half maximal absorbance (B/Bo = 0.5) or IC50; for lower affinity relative to Ins(1,4,5)P3: both antiserum preparations
Procedure: as §1, §2, §3, §4, §5, §6

[3] = system: affinity-purified Ins(1,4,5)P3-specific antibodies (from IP3 -C5 -BSA induced antiserum); assay: Competitive ELISA with affinity-purified Ins(1,4,5)P3-specific antibodies and inositol phosphates; assay type: binding, New Zealand White rabbit
Procedure: as §2
The antiserum (5.2 ml) was applied to an ECONO-PAC ™ protein A cartridge (5 ml, Bio-Rad) equilibrated with 100 mM Tris/HCl, pH 8.0. The column was washed with, in sequence, 20 ml of the equilibrating buffer, and 25 ml of 10 mM Tris/HCl, pH 8.0. The bound IgG was eluted with 25 ml of 100 mM glycine buffer, pH 3.0, at a flow rate of 0.5 ml/min. Fractions of 1.7 ml were collected in tubes containing 100 μl of 1M Tris/HCl, pH 8.0.
The dialyzed solution from step 1 was applied to a Ins(1,4,5)IP3 -agarose column (5.8 ml bed volume) equilibrated with 10 mM Tris/HCl, pH 7.5. The column was washed with the equilibration buffer followed by 500 mM NaCl in the same buffer. The absorbed proteins were eluted with, in sequence, 50 ml of 100 mM glycine buffer, pH 3.5, 10 ml of 10 mM Tris/HCl, pH 8.8, and 50 ml of 100 mM NaHCO3 /Na2 CO3 buffer, pH 10.5 Fractions of 1.7 ml were collected. For the eluate with the glycine buffer and with the NaHCO3 /Na2 /CO3 buffer, fractions were collected in tubes containing 100 μl of 1M Tris/HCl, pH 8.0, and 700 μl of 1M Tris/HCl, pH 7.6, respectively.
Referring to FIG. 2, the displacement curves were generated from competitive ELISA experiments between immobilized (1,4,5)IP3 and various inositol phosphates shown in the insert. The antibodies were preincubated with individual competitors at various concentrations for 30 minutes at room temperature before added to the (1,4,5)IP3 immobilized EIA plates. The assay for the competitive binding was the same as that described for the ELISA under "Experimental Procedures". Percentage total specific binding is expressed by B/Bo, where B=absorbance with competitor and Bo =absorbance without competitor. Each data point represents the means of three determinations. For clarity, the standard deviations were not shown.

[4] = biological target: affinity-purified Ins(1,4,5)P3-specific antibodies; assay: Inhibition of binding of affinity-purified antibodies to immobilized Ins(1,4,5)P3 by ions; parameters: species or system New Zealand White rabbit; settings: for pIC50: affinity-purified antibodies, preincubation 30 minutes, room temperature, read-out: IC50 for inhibition of antibody binding to immobilized Ins(1,4,5)P3; for inhibition of / interference with antibody binding to immobilized Ins(1,4,5)P3: concentration not stated with the result, or 'high concentrations'; for interference with antibody binding to immobilized Ins(1,4,5)P3: up to 0.3 mM; for inhibition of antibody recognition by cations: concentrations up to 100 mM
Procedure: as §2
Referring to FIG. 3, the affinity-purified antibodies were preincubated with individual multivalent ions at indicated concentrations for 30 minutes at room temperature before added to the (1,4,5)IP3 immobilized EIA plates. […] The assay for the binding inhibition was the same as that described for the ELISA in the Experimental Procedures. Percentage maximal antibody binding is expressed by B/Bo, where B=absorbance with inhibitor and Bo =absorbance without inhibitor. Each data point represents the means of three determinations.

Ins(1,4,5)P3 receptors = settings: Wilcox et al. 1993; read-out: IC50 for displacing [3H]Ins(1,4,5)P3 binding from Ins(1,4,5)P3 receptors; cited from earlier work

Row | Compound | IC50 [1] [M] | IC50 [2] [M] | lower affinity relative to Ins(1,4,5)P3 [2] | inhibition of / interference with antibody binding to immobilized Ins(1,4,5)P3 [4] | other results
1 | O=P(O)(O)O[C@H]1[C@H](OP(=O)(O)O)[C@@H](OP(=O)(O)O)[C@H](O)[C@@H](O)[C@H]1OP(=O)(O)O [Ins(1,2,5,6)P4] | 7.1e-05 | 2.1e-05 | two to four orders of magnitude | – | –
2 | PIP2 | 3.2e-05 | 1.6e-05 | two to four orders of magnitude | – | pIC50 [3]: 4.85; IC50 relative to that of Ins(1,4,5)P3 [3]: three orders or magnitude higher
3 | Nc1ncnc2c1ncn2[C@@H]1O[C@H](COP(=O)(O)OP(=O)(O)OP(=O)(O)O)[C@@H](O)[C@H]1O [ATP^4 -] | – | – | – | could be disrupted | pIC50 [4]: 3.68
4 | heparin | – | – | – | – | interference with antibody binding to immobilized Ins(1,4,5)P3 [4]: not affected; interference with antibody binding to immobilized Ins(1,4,5)P3 ([4]; listed as haparin): no appreciable interference
5 | [N-]=[N+]=[N-] [N3 -] | – | – | – | no appreciable interference | –
6 | O=P(O)(O)OC1[C@H](O)[C@H](O)C(O)[C@H](O)[C@H]1O (some centres unmarked) [Ins(1)P1] | – | 0.00042 | two to four orders of magnitude | – | –
7 | N.N.O=S(=O)(O)O [(NH4)2 SO4] | – | – | – | – | binding capability of antibodies after (NH4)2SO4 precipitation ([4]; even after extensive dialysis): complete loss of binding capability
8 | [K+] [K+] | – | – | – | did not affect the binding | inhibition of antibody recognition by cations [4]: did not cause significant inhibition
9 | O=P(O)(O)O[C@H]1[C@H](OP(=O)(O)O)[C@@H](OP(=O)(O)O)[C@@H](O)[C@@H](O)[C@@H]1OP(=O)(O)O [Ins(3,4,5,6)P4] | 6.3e-06 | 4.5e-06 | two to four orders of magnitude | – | –
10 | NC(CO)(CO)CO [Tris] | – | – | – | – | inhibition of antibody recognition by cations [4]: did not cause significant inhibition
11 | O=P(O)(O)O [HPO4^2 -] | – | – | – | could be disrupted | pIC50 [4]: 2.58
12 | O=P(O)(O)O[C@H]1[C@H](OP(=O)(O)O)[C@@H](OP(=O)(O)O)[C@H](OP(=O)(O)O)[C@@H](OP(=O)(O)O)[C@H]1OP(=O)(O)O [IP6, Phytic acid] | 0.0008 | 0.00015 | two to four orders of magnitude | – | –
13 | Cl [C1-] | – | – | – | no appreciable interference | –
14 | O=P(O)(O)O[C@@H]1[C@@H](O)[C@H](O)[C@H](O)[C@H](O)[C@H]1OP(=O)(O)O [Ins(4,5)P2] | 2.5e-05 | 3.8e-05 | two to four orders of magnitude | – | pIC50 [3]: 4.85; IC50 relative to that of Ins(1,4,5)P3 [3]: three orders or magnitude higher
15 | N [NH4 +] | – | – | – | – | inhibition of antibody recognition by cations [4]: did not cause significant inhibition
16 | O=P(O)(O)O[C@@H]1[C@H](O)[C@H](O)[C@@H](OP(=O)(O)O)[C@H](OP(=O)(O)O)[C@H]1O [Ins(1,4,5)P3, D-myo-inositol 1,4,5-trisphosphate] | 3.1e-08 | 8.9e-08 | – | – | binding compared with IP3-C6NC5-BSA induced antiserum [1]: stronger binding; pIC50 [3]: 7.92; pIC50 (Ins(1,4,5)P3 receptors): 7.68
17 | O=P(O)(O)O[C@H]1[C@H](OP(=O)(O)O)[C@H](O)[C@H](O)[C@@H](O)[C@@H]1OP(=O)(O)O [Ins(1,5,6)P3] | – | – | two to four orders of magnitude | – | order of affinity toward various inositol phosphates ([2]; IP3-C6NC5-BSA induced antiserum): Ins(3,4,5,6)P4 >Ins(1,5,6)P3, PIP2, Ins(1,2,5,6)P4 >Ins(4,5)P2
18 | O=P(O)(O)OC1C(O)C(OP(=O)(O)O)C(OP(=O)(O)O)C(OP(=O)(O)O)C1OP(=O)(O)O (centres unmarked) [Ins(1,3,4,5,6)P5] | – | – | – | – | pIC50 [3]: 4.35; IC50 relative to that of Ins(1,4,5)P3 [3]: three orders or magnitude higher
19 | [Na+] [Na+] | – | – | – | no inhibiting effect; also recorded: did not affect the binding | inhibition of antibody recognition by cations [4]: did not cause significant inhibition
20 | O=S(=O)(O)O [SO4^2 -] | – | – | – | could be disrupted | pIC50 [4]: 1.94
21 | O=P(O)(O)O[C@H]1[C@H](O)[C@@H](O)[C@H](OP(=O)(O)O)[C@@H](OP(=O)(O)O)[C@H]1O [Ins(1,3,4)P3] | 1e-05 | 1.7e-06 | two to four orders of magnitude | – | decrease in affinity compared with IP3-C6NC5-BSA induced antiserum [1]: 10 fold; pIC50 [3]: 4.41; IC50 relative to that of Ins(1,4,5)P3 [3]: three orders or magnitude higher
